Results: ChEMBL document CHEMBL1155172, “Distribution of radioactivity in bone and related structures following administration of [14C]dalbavancin to New Zealand white rabbits” (Antimicrob Agents Chemother, 2007)

Legend:
Parameters in all cases: dose 20 mg/kg, route intravenous
Conditions in all cases: in vivo
[1] = Drug level in New Zealand white rabbit periostium assessed as [14C]dalbavancin level per gram of tissue at 20 mg/kg, iv after 336 hrs by autoradioluminography; format: ADME, organism-based, Oryctolagus cuniculus, Periosteum
[2] = Drug level in New Zealand white rabbit bone marrow assessed as [14C]dalbavancin level per gram of tissue at 20 mg/kg, iv after 24 hrs by liquid scintillation counting method; format: ADME, organism-based, Oryctolagus cuniculus
[3] = Drug level in New Zealand white rabbit skeletal muscle assessed as [14C]dalbavancin level per gram of tissue at 20 mg/kg, iv after 24 hrs by autoradioluminography; format: ADME, organism-based, Oryctolagus cuniculus
Oryctolagus cuniculus [4] = assay: Plasma concentration in New Zealand white rabbit assessed as [14C]dalbavancin level per gram of tissue at 20 mg/kg, iv after 336 hrs by liquid scintillation counting method; format: ADME, organism-based
[5] = Drug level in New Zealand white rabbit skeletal muscle assessed as [14C]dalbavancin level per gram of tissue at 20 mg/kg, iv after 336 hrs by autoradioluminography; format: ADME, organism-based, Oryctolagus cuniculus
Oryctolagus cuniculus [6] = assay: Plasma concentration in New Zealand white rabbit assessed as [14C]dalbavancin level per gram of tissue at 20 mg/kg, iv after 72 hrs by liquid scintillation counting method; format: ADME, organism-based
[7] = Drug level in New Zealand white rabbit ligament assessed as [14C]dalbavancin level per gram of tissue at 20 mg/kg, iv after 12 hrs by autoradioluminography; format: ADME, organism-based, Oryctolagus cuniculus
[8] = Drug level in New Zealand white rabbit meniscus assessed as [14C]dalbavancin level per gram of tissue at 20 mg/kg, iv after 120 hrs by autoradioluminography; format: ADME, organism-based, Oryctolagus cuniculus
[9] = Drug level in New Zealand white rabbit compact bone assessed as [14C]dalbavancin level per gram of tissue at 20 mg/kg, iv after 24 hrs by autoradioluminography; format: ADME, organism-based, Oryctolagus cuniculus, Bone element
[10] = Drug level in New Zealand white rabbit bone assessed as [14C]dalbavancin level per gram of tissue at 20 mg/kg, iv after 24 hrs by liquid scintillation counting method; format: ADME, organism-based, Oryctolagus cuniculus, Bone element

- Drug uptake [1]: 5.18 µg
- Drug uptake [2]: 14.8 µg/g
- Drug uptake [3]: 1.92 µg
- Cp (Oryctolagus cuniculus [4]): 0.94 µg
- Drug uptake [5]: 0.8 µg/g
- Cp (Oryctolagus cuniculus [6]): 4.5 µg
- Drug uptake [7]: 22.1 µg/g
- Drug uptake [8]: 4.39 µg/g
- Drug uptake [9]: 1.56 µg/g
- Drug uptake [10]: 5.14 µg/g
SMILES: CN[C@H]1C(=O)N[C@@H]2Cc3ccc(cc3)Oc3cc4cc(c3O[C@@H]3O[C@H](C(=O)O)[C@@H](O)[C@H](O)[C@H]3NC(=O)CCCCCCCCC(C)C)Oc3ccc(cc3Cl)[C@@H](O)[C@@H]3NC(=O)[C@H](NC(=O)[C@@H]4NC(=O)[C@@H](NC2=O)c2cc(cc(O)c2Cl)Oc2cc1ccc2O)c1ccc(O)c(c1)-c1c(O[C@H]2O[C@H](CO)[C@@H](O)[C@H](O)[C@@H]2O)cc(O)cc1[C@@H](C(=O)NCCCN(C)C)NC3=O [DALBAVANCIN]
